The values that follow come from BindingDB's records for doi:10.7270/Q2HM57BR (D3R/Abbott, 2015).

pKd: −log10 of the molar value.

As a reminder, the pKd is the negative decadic logarithm of the Kd, by convention in mol/L.

This experiment has as its target T1, UDP-3-O-acyl-N-acetylglucosamine deacetylase (Pseudomonas aeruginosa (strain ATCC 15692 / DSM 22644 / CIP 104116 / JCM 14847 / LMG 12228 / 1C / PRS 101 / PAO1), UniProt P47205).
T1 sequence (P47205 whole entry): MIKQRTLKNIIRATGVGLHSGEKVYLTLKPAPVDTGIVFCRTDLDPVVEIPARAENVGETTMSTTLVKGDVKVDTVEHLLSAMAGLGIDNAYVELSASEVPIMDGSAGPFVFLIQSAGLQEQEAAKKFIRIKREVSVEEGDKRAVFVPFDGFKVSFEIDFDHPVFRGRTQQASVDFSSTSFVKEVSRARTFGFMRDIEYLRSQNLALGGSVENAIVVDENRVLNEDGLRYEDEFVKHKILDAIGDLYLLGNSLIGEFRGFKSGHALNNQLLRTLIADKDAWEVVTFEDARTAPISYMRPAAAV
The experiment is described as follows: Thermofluor_Method1. A general note: DSF heats the sample and reads unfolding from a dye or from intrinsic fluorescence.
`NC[C@H](NC(=O)c1ccc(-c2ccc(Br)cc2)cc1)C(=O)NO` [CS250]: the pKd was 6.72.

Consider `C[C@@H](O)[C@H](NC(=O)c1ccc(C#CC#Cc2ccccc2)cc1)C(=O)NCC1(C)NC(=O)NC1=O` (stereo partly specified) [CS255], for which the pKd was less than 4.00. The value for `CC1(CNC(=O)[C@H](CN)NC(=O)c2ccc(-c3ccc(Br)cc3)cc2)NC(=O)NC1=O` (stereo partly specified) [CS267] was less than 4.00; that for `C[C@@H](O)[C@H](NC(=O)c1ccc(-c2ccc(Br)cc2)cc1)C(=O)NO` [CS258] was 7.48.

In turn, `CC1(CNC(=O)[C@H](CN)NC(=O)c2ccc(C#Cc3ccccc3)cc2)NC(=O)NC1=O` (stereo partly specified) [CS266] showed a pKd of less than 4.00. The value for `CN(C)c1ccc(C2=N[C@@H](C(=O)NO)CO2)cc1` [CS273] was less than 4.00. The value for `CCCc1ccc(-c2ccc(C3=N[C@@H](C(=O)NO)CO3)cc2)cc1` [CS274] was 4.81; that for `O=C(NO)[C@H]1COC(c2ccc(F)cc2)=N1` [CS279] was 4.95; that for `C[C@@H](O)[C@H](NC(=O)c1ccc(C#CC#Cc2ccccc2)cc1)C(=O)NO` [CS257] was 8.08. As for `CC1(CNC(=O)c2ccc(C#CC#Cc3ccccc3)cc2)NC(=O)NC1=O` (stereo unspecified) [CS243], the figure is 4.19; as for `C[C@@H](O)[C@H](NC(=O)c1ccc(-c2ccccc2)cc1)C(=O)NO` [CS263], 7.13; as for `CC1(CNC(=O)c2ccc(C#Cc3ccccc3)cc2)NC(=O)NC1=O` (stereo unspecified) [CS22], 4.03. As to `CC1(CNC(=O)[C@H](CN)NC(=O)c2ccc(-c3ccccc3)cc2)NC(=O)NC1=O` (stereo partly specified) [CS264], the pKd was less than 4.00. The value for `C[C@@H](O)[C@H](NC(=O)c1ccc(-c2ccc(Br)cc2)cc1)C(=O)NCC1(C)NC(=O)NC1=O` (stereo partly specified) [CS256] was less than 4.00; that for `O=C(NO)c1csc(-c2ccc(F)c(C(F)(F)F)c2)n1` [CS277] was 5.54; that for `C[C@@H](O)[C@H](NC(=O)c1ccc(-c2ccccc2)cc1)C(=O)NCC1(C)NC(=O)NC1=O` (stereo partly specified) [CS253] was less than 4.00. `O=C(NO)c1csc(-c2ccc(OC(F)(F)F)c(Cl)c2)n1` [CS275] had a pKd of 4.67. As for `NC[C@H](NC(=O)c1ccc(-c2ccccc2)cc1)C(=O)NO` [CS249], the figure is 6.41; as for `CC1(CNC(=O)c2ccc(-c3ccccc3)cc2)NC(=O)NC1=O` (stereo unspecified) [CS21], less than 4.00. As for `O=C(NO)[C@H]1COC(c2ccc([N+](=O)[O-])cc2)=N1` [CS268], the figure is 5.14; as for `CC1(CNC(=O)[C@H](CN)NC(=O)c2ccc(C#CC#Cc3ccccc3)cc2)NC(=O)NC1=O` (stereo partly specified) [CS265], less than 4.00; as for `C[C@@H](O)[C@H](NC(=O)c1ccc(C#Cc2ccccc2)cc1)C(=O)NO` [CS259], 7.70. As for `C[C@@H](O)[C@H](NC(=O)c1ccc(C#Cc2ccccc2)cc1)C(=O)NCC1(C)NC(=O)NC1=O` (stereo partly specified) [CS254], the figure is less than 4.00; as for `CC1(CNC(=O)c2ccc(-c3ccc(Br)cc3)cc2)NC(=O)NC1=O` (stereo unspecified) [CS23], less than 4.00. In turn, `O=C(NO)[C@H]1COC(c2ccc(F)c(C(F)(F)F)c2)=N1` [CS271] had a pKd of 5.99.

In the case of `O=C(NO)[C@H]1COC(c2ccc(OC(F)(F)F)c(Cl)c2)=N1` [CS270], the pKd was 5.42. The value for `NC[C@H](NC(=O)c1ccc(C#CC#Cc2ccccc2)cc1)C(=O)NO` [CS252] was 7.23; that for `O=C(NO)[C@H]1COC(c2ccc(OCc3cccc(F)c3)c(OC(F)(F)F)c2)=N1` [CS269] was less than 4.00. The value for `O=C(NO)C1=C[SiH2]C(c2ccc(F)cc2)=N1` (stereo unspecified) [CS276] was 4.55; that for `CN(C)c1ccc(-c2nc(C(=O)NO)cs2)cc1` [CS278] was 4.55; that for `O=C(NO)[C@H]1COC(c2cc3cc(F)ccc3[nH]2)=N1` [CS272] was 5.82.
